The supplement of paper PMC10307832

Columns and labels:
Assay in all cases: relative viability (nuclei count vs DMSO), 5 days (fraction); higher = more cells survive
Palbociclib + OSI-027 = compound: CC(=O)c1c(C)c2cnc(Nc3ccc(N4CCNCC4)cn3)nc2n(C2CCCC2)c1=O [Palbociclib] + COc1cccc2cc(-c3nc([C@H]4CC[C@H](C(=O)O)CC4)n4ncnc(N)c34)[nH]c12 [OSI-027] (partner 0.5 µM)
How it was run: (§1)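 One day after seeding in 1536-well plates, lung cancer cell lines were dosed by pin tool. Dosing was either single-drug or a fixed anchor-drug dose plus five library-drug doses (not always all listed) in √10 steps. After 5 days, nuclei were stained in one fix-and-stain step and counted on 4× images, and relative viability is the nuclei count of treated wells over that of vehicle wells, given as the median of duplicate plates.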

Palbociclib + Olaparib = compound: CC(=O)c1c(C)c2cnc(Nc3ccc(N4CCNCC4)cn3)nc2n(C2CCCC2)c1=O [Palbociclib] + O=C(c1cc(Cc2n[nH]c(=O)c3ccccc23)ccc1F)N1CCN(C(=O)C2CC2)CC1 [Olaparib] (partner 8 µM)
How it was run: as §1

Palbociclib + Bortezomib = compound: CC(=O)c1c(C)c2cnc(Nc3ccc(N4CCNCC4)cn3)nc2n(C2CCCC2)c1=O [Palbociclib] + CC(C)C[C@H](NC(=O)[C@H](Cc1ccccc1)NC(=O)c1cnccn1)B(O)O [Bortezomib] (partner 0.002 µM)
How it was run: as §1

Palbociclib + Crizotinib = compound: CC(=O)c1c(C)c2cnc(Nc3ccc(N4CCNCC4)cn3)nc2n(C2CCCC2)c1=O [Palbociclib] + C[C@@H](Oc1cc(-c2cnn(C3CCNCC3)c2)cnc1N)c1c(Cl)ccc(F)c1Cl [Crizotinib] (partner 1 µM)
How it was run: as §1

Cell Line	relative viability (Palbociclib + OSI-027; first compound 0.01 µM)	relative viability (Palbociclib + OSI-027; first compound 0.03162 µM)	relative viability (Palbociclib + OSI-027; first compound 0.1 µM)	relative viability (Palbociclib + OSI-027; first compound 0.3162 µM)	relative viability (Palbociclib + OSI-027; first compound 1 µM)	relative viability (Palbociclib + Olaparib; first compound 0.01 µM)	relative viability (Palbociclib + Olaparib; first compound 0.03162 µM)	relative viability (Palbociclib + Olaparib; first compound 0.1 µM)	relative viability (Palbociclib + Olaparib; first compound 0.3162 µM)	relative viability (Palbociclib + Olaparib; first compound 1 µM)	relative viability (Palbociclib + Bortezomib; first compound 0.01 µM)	relative viability (Palbociclib + Bortezomib; first compound 0.03162 µM)	relative viability (Palbociclib + Bortezomib; first compound 0.1 µM)	relative viability (Palbociclib + Bortezomib; first compound 0.3162 µM)	relative viability (Palbociclib + Bortezomib; first compound 1 µM)	relative viability (Palbociclib + Crizotinib; first compound 0.01 µM)	relative viability (Palbociclib + Crizotinib; first compound 0.03162 µM)	relative viability (Palbociclib + Crizotinib; first compound 0.1 µM)	relative viability (Palbociclib + Crizotinib; first compound 0.3162 µM)	relative viability (Palbociclib + Crizotinib; first compound 1 µM)
LOU-NH91	0.706	0.587	0.46	0.505	0.44	0.959	0.696	0.677	0.664	0.559	0.458	0.439	0.441	0.446	0.489	0.745	0.676	0.584	0.592	0.505
NCI-H1734	0.684	0.42	0.466	0.413	0.329	0.616	0.596	0.566	0.494	0.407	0.896	0.532	0.661	0.619	0.409	0.685	0.622	0.52	0.499	0.398
NCI-H1792	0.821	0.688	0.649	0.537	0.485	0.476	0.266	0.384	0.348	0.222	0.934	0.875	0.917	0.852	0.711	0.972	0.897	0.906	0.868	0.634
HARA	0.509	–	0.272	0.303	0.122	0.673	0.596	0.524	0.852	0.344	1.07	1.02	1	0.874	0.389	1.04	0.945	0.836	0.766	0.499
NCI-H2087	0.433	–	0.361	0.278	0.25	0.721	0.517	0.403	0.437	0.248	0.803	0.81	0.702	0.485	0.372	0.802	0.901	0.618	0.643	0.375
COR-L 105	0.676	0.506	0.453	0.429	0.336	0.711	0.552	0.564	0.475	0.432	0.759	0.435	0.486	0.504	0.363	0.726	0.555	0.451	0.447	0.276
CAL-12T	0.766	0.546	0.441	0.446	0.316	0.667	0.675	0.577	0.531	0.505	1.04	–	–	0.674	0.405	0.598	0.464	0.466	0.511	0.374
HCC-44	0.487	0.492	0.512	0.582	0.482	0.945	0.952	1	0.965	1.01	0.824	0.804	0.844	0.836	0.911	0.738	0.803	0.789	0.747	0.85
